Results as given in publication PMC8952293, “A Histone Deacetylase (HDAC) Inhibitor with Pleiotropic In Vitro Anti-Toxoplasma and Anti-Plasmodium Activities Controls Acute and Chronic Toxoplasma Infection in Mice” (International Journal of Molecular Sciences, 2022).

What was measured:
[1] = test system: Toxoplasma gondii; parameters: method as in PMID 20713670; details: cited from earlier work
[2] = SPECT/CT imaging of the iodine-125 radiotracer in infected mice; format: in vivo, mouse
Procedure: (§1) An isotopic exchange was performed to obtain the radiolabeled iodinated JF363. Briefly, 2 mg of the iodinated molecule was incubated in acetone with 3 mg of cold Na127I and 55.5 MBq of radioactive Na125I (PerkinElmer) for 1 h at 95 °C in a heat block. After evaporation of acetone, the radiotracer was solubilized in corn oil; 5% DMSO was also added to mimic the previous conditions. Quality controls were performed by TLC.
Three female CD1 mice (31.7 ± 1.3 g; Janvier Labs, Le Genest-Saint-Isle, France) and two female mice infected with T. gondii obtained as previously described (19.5 ± 2.1 g) were studied. The previous study gave the radiotracer by oral gavage (administered dose: 0.73 ± 0.25 MBq/g). Before imaging, mice were anesthetized using isoflurane (2% in a mixture of air: O2) and positioned in a thermostatic bed. Whole-body single-photon emission computerized tomography/computed tomography (SPECT/CT) acquisitions were performed 0.5, 3.5, and 24 h after injection using a dedicated system (nanoSPECT-CT; Mediso, Budapest, Hungary). First, CT and SPECT acquisitions were reconstructed and fused using Nucline software (Mediso, Budapest, Hungary). This fusion allowed drawing a volume of interest (VOI in cm^3) on selected/visible organs, and SPECT quantification based on CT was then performed using VivoQuant (InviCRO, Boston, MA, USA). Results were expressed in %ID/cm^3 or %ID/g (percentage of injected dose per cubic centimeter or gram of tissue).

[3] = Stability of the radiolabeled compound in the medium; format: physicochemical; details: corn oil with 5% DMSO
Procedure: as §1

[4] = test system: Toxoplasma; parameters: method as in PMID 22712598; details: primary drug used to treat toxoplasmosis; cited from earlier work

## FR235222
[1]
  efficiency on parasite proliferation and ex vivo cyst formation: efficient in vitro

## COc1cc(CC(=O)Nc2ccc(C(=O)NO)cc2)ccc1I [iodo-JF363]
[2]; Bladder, infected mouse #2, 0.5 h pi
  SPECT quantification: 5.5 %DI/cm^3
[2]; Bladder, infected mouse #2, 3.5 h pi
  SPECT quantification: 19.1 %DI/cm^3
[2]; Bladder, infected mouse #2, 24 h pi
  SPECT quantification: 0.6 %DI/cm^3
[2]; Bladder, infected mouse #3, 0.5 h pi
  SPECT quantification: 6.4 %DI/cm^3
[2]; Bladder, infected mouse #3, 3.5 h pi
  SPECT quantification: 8.2 %DI/cm^3
[2]; Bladder, infected mouse #3, 24 h pi
  SPECT quantification: 3.9 %DI/cm^3
[2]; Heart, infected mouse #2, 0.5 h pi
  SPECT quantification: 3.1 %DI/cm^3
[2]; Heart, infected mouse #2, 3.5 h pi
  SPECT quantification: 2.1 %DI/cm^3
[2]; Heart, infected mouse #2, 24 h pi
  SPECT quantification: 0.2 %DI/cm^3
[2]; Heart, infected mouse #3, 0.5 h pi
  SPECT quantification: 1.0 %DI/cm^3
[2]; Heart, infected mouse #3, 3.5 h pi
  SPECT quantification: 1.0 %DI/cm^3
[2]; Heart, infected mouse #3, 24 h pi
  SPECT quantification: 0.2 %DI/cm^3
[2]; Intestine, infected mouse #2, 0.5 h pi
  SPECT quantification: 16.7 %DI/cm^3
[2]; Intestine, infected mouse #2, 3.5 h pi
  SPECT quantification: 13.8 %DI/cm^3
[2]; Intestine, infected mouse #2, 24 h pi
  SPECT quantification: 0.5 %DI/cm^3
[2]; Intestine, infected mouse #3, 0.5 h pi
  SPECT quantification: 3.8 %DI/cm^3
[2]; Intestine, infected mouse #3, 3.5 h pi
  SPECT quantification: 4.9 %DI/cm^3
[2]; Intestine, infected mouse #3, 24 h pi
  SPECT quantification: 1.5 %DI/cm^3
[2]; Lungs, infected mouse #2, 0.5 h pi
  SPECT quantification: 1.8 %DI/cm^3
[2]; Lungs, infected mouse #2, 3.5 h pi
  SPECT quantification: 1.5 %DI/cm^3
[2]; Lungs, infected mouse #2, 24 h pi
  SPECT quantification: 0.1 %DI/cm^3
[2]; Lungs, infected mouse #3, 0.5 h pi
  SPECT quantification: 0.6 %DI/cm^3
[2]; Lungs, infected mouse #3, 3.5 h pi
  SPECT quantification: 0.5 %DI/cm^3
[2]; Lungs, infected mouse #3, 24 h pi
  SPECT quantification: 0.2 %DI/cm^3
[2]; Mouth, infected mouse #2, 0.5 h pi
  SPECT quantification: 10.0 %DI/cm^3
[2]; Mouth, infected mouse #2, 3.5 h pi
  SPECT quantification: 8.4 %DI/cm^3
[2]; Mouth, infected mouse #2, 24 h pi
  SPECT quantification: 4.7 %DI/cm^3
[2]; Mouth, infected mouse #3, 0.5 h pi
  SPECT quantification: 10.5 %DI/cm^3
[2]; Mouth, infected mouse #3, 3.5 h pi
  SPECT quantification: 6.8 %DI/cm^3
[2]; Mouth, infected mouse #3, 24 h pi
  SPECT quantification: 3.4 %DI/cm^3
[2]; Neck ganglia, infected mouse #2, 0.5 h pi
  SPECT quantification: 8.5 %DI/cm^3
[2]; Neck ganglia, infected mouse #2, 3.5 h pi
  SPECT quantification: 9.5 %DI/cm^3
[2]; Neck ganglia, infected mouse #2, 24 h pi
  SPECT quantification: 1.3 %DI/cm^3
[2]; Neck ganglia, infected mouse #3, 0.5 h pi
  SPECT quantification: 4.0 %DI/cm^3
[2]; Neck ganglia, infected mouse #3, 3.5 h pi
  SPECT quantification: 5.0 %DI/cm^3
[2]; Neck ganglia, infected mouse #3, 24 h pi
  SPECT quantification: 1.1 %DI/cm^3
[2]; Salivary glands, infected mouse #2, 0.5 h pi
  SPECT quantification: 16.7 %DI/cm^3
[2]; Salivary glands, infected mouse #2, 3.5 h pi
  SPECT quantification: 37.6 %DI/cm^3
[2]; Salivary glands, infected mouse #2, 24 h pi
  SPECT quantification: 3.0 %DI/cm^3
[2]; Salivary glands, infected mouse #3, 0.5 h pi
  SPECT quantification: 8.1 %DI/cm^3
[2]; Salivary glands, infected mouse #3, 3.5 h pi
  SPECT quantification: 20.3 %DI/cm^3
[2]; Salivary glands, infected mouse #3, 24 h pi
  SPECT quantification: 3.3 %DI/cm^3
[2]; Stomach, infected mouse #2, 0.5 h pi
  SPECT quantification: 12.1 %DI/cm^3
[2]; Stomach, infected mouse #2, 3.5 h pi
  SPECT quantification: 17.1 %DI/cm^3
[2]; Stomach, infected mouse #2, 24 h pi
  SPECT quantification: 4.2 %DI/cm^3
[2]; Stomach, infected mouse #3, 0.5 h pi
  SPECT quantification: 45.0 %DI/cm^3
[2]; Stomach, infected mouse #3, 3.5 h pi
  SPECT quantification: 42.7 %DI/cm^3
[2]; Stomach, infected mouse #3, 24 h pi
  SPECT quantification: 8.9 %DI/cm^3
[2]; Thyroid, infected mouse #2, 0.5 h pi
  SPECT quantification: 28.9 %DI/cm^3
[2]; Thyroid, infected mouse #2, 3.5 h pi
  SPECT quantification: 18.8 %DI/cm^3
[2]; Thyroid, infected mouse #2, 24 h pi
  SPECT quantification: 26.6 %DI/cm^3
[2]; Thyroid, infected mouse #3, 0.5 h pi
  SPECT quantification: 4.1 %DI/cm^3
[2]; Thyroid, infected mouse #3, 3.5 h pi
  SPECT quantification: 9.9 %DI/cm^3
[2]; Thyroid, infected mouse #3, 24 h pi
  SPECT quantification: 29.5 %DI/cm^3
[2]; both infected mice, 24 h pi
  SPECT activity in neck ganglia: ~ 1%
[2]; infected mouse #2, 30 min pi
  SPECT activity in neck ganglia: 8.5 % ID/cm^3
[2]; infected mouse #2, 3.5 h pi
  SPECT activity in neck ganglia: 9.5 % ID/cm^3
[2]; infected mouse #3, 30 min pi
  SPECT activity in neck ganglia: 4 % ID/cm^3
[2]; infected mouse #3, 3.5 h pi
  SPECT activity in neck ganglia: 5 % ID/cm^3
[2]; oral gavage of the radiotracer, mice
  route of elimination: primarily through the urinary tract
[3]
  stability in the medium: good up to 72 h

## CCc1nc(N)nc(N)c1-c1ccc(Cl)cc1 [pyrimethamine]
[4]
  IC50: 400 nM
